Measured values taken from US20160361443A1, “Ultrasound Molecular Imaging With Targeted Biocompatible Microbubbles” (University of Pittsburgh - Of the Commonwealth System of …, priority 2015, published 2016).
“And” between values parts separate entries of the source, which are not always exact repeats. Equal entries are not always repeated. “Also recorded” adds a separate entry of the source. Each block holds one molecule with its values, some of them ahead of it. Where no end group is shown, it is not given here. Side-chain parts run from the residue outwards. microbubble albumin shell = not defined here

Assays:
[1] = test system: Rat heart microvascular ECs; assay: Parallel plate perfusion chamber, MB adhesion to cultured endothelial cells; assay type: cell-based; conditions: for MB adhesion to inflamed (activated) ECs: IL-1b-activated ECs; for MB adhesion to inflamed (activated) ECs / MB adhesion to noninflamed (normal) ECs: 5×10^6 MB in 1 mL, wall shear rate 200 s-1; for MB adhesion to activated versus normal ECs (in words): in vitro flow chamber
Experimental: (§1) Targeted biodegradable polymer MB (3.4±1.3μm) were prepared bearing a 12-mer synthetic peptide on the surface with specific E-selectin affinity (MBESEL). See, FIG. 7. Control MB had scrambled peptide (MBCTL) or non-specific IgG (MBIgG). MB adhesion to cultured rat endothelial cells (EC) was assessed in a parallel plate flow system (n=3/condition). Intravital microscopy of rat cremaster microcirculation was performed after i.v. injection of each MB type under basal or activated conditions (scrotal TNF 5μg) (n=3 rats/condition). To determine if binding events could be imaged, 6 rats had 15 min coronary artery occlusion. After 4 hrs reflow, each rat received separate i.v. boluses of MBESEL, MBCTL, and MBIgG. Non-linear echo imaging was performed 3 and 3.5 min later. Videointensity (VI) differences between the 2 time points was attributed to target-specific signal.
Cultured rat heart microvessel endothelial cells were placed on glass cover slips. The cells were then stimulated with IL-1β (2 ng/ml) for 4 hrs and then perfused with 1 mL microbubbles (5×10^6 /mL)-MBE-SEL or MBCTL. These microbubbles were then subjected to a wall shear rate of 200 sec-1. See, FIG. 8. 20 random fields (n=3) were assessed. […] FIGS. 9A and 9B.
A parallel plate perfusion chamber was used to quantify MB adhesion to cultured endothelial cells (ECs).12 Rat heart microvascular ECs (VEC Technologies, Rensselaer, N.Y.) were grown to confluence on 25 mm 3 75 mm glass coverslips. Cells were incubated for 5 hours with 5 ng/mL interleukin-1b (Sigma-Aldrich, St. Louis, Mo.) to cause activation. Coverslips with normal or IL-1b-activated ECs ([…]; 3/condition) were mounted in the chamber and perfused with one of the three MB species (5×10^6 MB in 1 mL culture medium) at a wall shear rate of 200 s-1, followed by an additional 3 mL of plain culture medium. The chamber was then mounted on a microscope (Nikon TE200) and 20 random bright-field images (3 100) of the ECs were captured (ORCA285, Hamamatsu, Bridgewater, N.J.). The mean number of attached MBs/ECs was counted offline.

[2] = test system: rat cremaster muscle microcirculation; assay: Intravital microscopy of MB adhesion in vivo; conditions: for MB adhesion to inflamed microcirculation: TNF-a 5 μg intrascrotal; for MB adhesion to normal or inflamed microcirculation (in words): basal or TNF-a activated
Experimental: as §1
An intravital microscopy of rat cremaster muscle microcirculation was performed after intravenous injection of 1×10^8 MBE-SEL or MBCTL (n=3 per condition). Non-inflamed: 4 hrs after intrascrotal injection of saline. Inflamed : 4 hrs after intrascrotal injection of TNF-α (5 μg). Real-time images were captured and microbubble adhesion was quantified in venules at 5 minutes after microbubble injection in 20 random fields. See, FIGS. 10A and 10B.
Microscopy of the rat cremaster muscle microcirculation was used for real-time visualization of MB adhesion in vivo. Sprague Dawley rats (100-120 g) received intrascrotal injection of either tumor necrosis factor a (n=9, 5 μg, Thermo Scientific, Waltham, Mass.) or 1 mL saline (n=9). Four hours later, the cremaster muscle was exteriorized and mounted on an inverted fluorescent microscope (Nikon TE200). Each rat received one intravenous injection (1×10^8 MB) of either MBESEL or control MBs (MBCTL or MBIgG) in […], followed by a […] ([…], 3 rats per MB type/inflammatory status combination, total 6 groups). Five minutes after injection, bright-field microscopic imaging of 20 random fields was performed to identify microvessels, and epi-illumination fluorescent imaging was performed to identify MBs, followed by pentobarbital overdose. Images were analyzed offline for MB adhesion per field of view, defined as MB immobility lasting≧30 seconds.
(§2) All protocols were approved by the Institutional Animal Care and Use Committee at the University of Pittsburgh. […] (Sprague Dawley, Harlan Laboratories, Indianapolis, Ind.) were anesthetized with intraperitoneal sodium pentobarbital (50 mg/kg) and maintained with 1.5 to 2.0% inhaled isoflurane. Body temperature was maintained at 37° C. with a heating pad. The internal jugular vein was cannulated with a 20-gauge catheter for MB injection.

[3] = biological target: T1, E-selectin (Rattus norvegicus, UniProt P98105); assay: Ultrasound molecular imaging in rat myocardial ischemia-reperfusion model; assay type: in vivo; conditions: for Contrast enhancement of postischemic myocardium (in words): 4 h after reperfusion, 3 min after MB injection
T1 construct: Immunofluorescent staining in all rats consistently confirmed microvascular E-selectin and ICAM-1 expression in postischemic myocardium; from tissue
T1 sequence (P98105 22-549): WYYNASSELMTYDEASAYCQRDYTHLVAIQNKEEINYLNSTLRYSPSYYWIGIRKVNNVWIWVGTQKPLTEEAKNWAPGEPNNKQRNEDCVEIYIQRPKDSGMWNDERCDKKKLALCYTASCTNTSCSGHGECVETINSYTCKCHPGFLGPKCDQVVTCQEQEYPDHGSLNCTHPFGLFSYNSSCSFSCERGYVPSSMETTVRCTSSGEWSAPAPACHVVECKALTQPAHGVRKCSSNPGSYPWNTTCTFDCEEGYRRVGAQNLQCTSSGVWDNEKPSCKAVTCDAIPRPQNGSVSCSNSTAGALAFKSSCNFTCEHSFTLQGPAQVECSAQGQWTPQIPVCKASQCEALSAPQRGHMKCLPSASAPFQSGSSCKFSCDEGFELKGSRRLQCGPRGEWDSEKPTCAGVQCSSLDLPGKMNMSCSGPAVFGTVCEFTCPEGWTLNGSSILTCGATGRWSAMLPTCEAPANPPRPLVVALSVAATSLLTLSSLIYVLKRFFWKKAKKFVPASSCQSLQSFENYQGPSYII
Experimental: as §1
An open chest rat model of myocardial ischemia-reperfusion (n=6) was performed where the left anterior descending coronary artery was occluded for 15 minutes then reperfused. See, FIG. 11. At 4 hrs of reflow, the rat received separate i.v. injections of MBE-SEL or MBCTL (2.5×10^7 MBs). Triggered ultrasound imaging (8 MHz, MI 0.6, Sequoia CPS, Siemens) was performed 3 min after injection, followed by 5 destruction frames (MI 1.9) and a second imaging frame (MI 0.6) at 3.5 minutes. The videointensity difference between the two imaging frames was attributed to microbubble adhesion. See, FIG. 12.
as §2
A previously described rat model of acute myocardial ischemia and reperfusion was used for UMI of E-selectin overexpression as a marker of ischemic memory.^3 Anesthetized rats (n=6, 150-200 g) were intubated and mechanically ventilated. A lateral thoracotomy was performed, and the left anterior descending (LAD) coronary artery was occluded for 15 minutes and then reperfused. After 4 hours of reflow, each rat received separate intravenous injections of MBESEL, MBCTL, and MBIgG in random order (2.5×10^7 MBs in […] followed by a […]), and ultrasound imaging was performed as described below.
Thereafter, high mechanical index (MI) burst pulses were sent to ensure that all adhered and freely circulating MBs were destroyed prior to any subsequent injection. Typically, subsequent injections were given 5 minutes after MBs could no longer be detected in the left ventricular cavity on ultrasound imaging. The MB dosage was empirically chosen based on pilot studies assessing myocardial enhancement from various doses. At the end of the experiment, the LAD coronary artery was reoccluded, nontargeted myocardial contrast echocardiography (MCE) using plain lipid MBs was performed to delineate the risk area, and the rat was euthanized using pentobarbital overdose. Open-chest MCE in the short-axis view was performed using a contrast-specific imaging mode combining phase and amplitude modulation of the transmit signal (Cadence Contrast Pulse Sequencing, Sequoia 512, Siemens Ultrasound, Mountain View, Calif.) from a linear array transducer (15 L8) operating at 8 MHz. Probe position, dynamic range, gain settings, and focus were initially optimized and maintained constant. Ultrasound detection of bound MBs was performed using a previously described approach.^12,13 After 3 minutes to allow MB retention and washout of unbound MBs, end-systolic imaging was performed at an MI of 0.6, followed by an ultrasound burst pulse at MI of 1.9 to destroy the MBs and then end-systolic imaging 30 seconds later at MI 0.6. […]

[4] = biological target: T2, human E-selectin on TNFα-activated HUVEC cells (human, UniProt P16581 22-610); assay: in vitro flow chamber, TNFα-activated HUVEC
T2 construct: whole, on cells
T2 sequence (looked up): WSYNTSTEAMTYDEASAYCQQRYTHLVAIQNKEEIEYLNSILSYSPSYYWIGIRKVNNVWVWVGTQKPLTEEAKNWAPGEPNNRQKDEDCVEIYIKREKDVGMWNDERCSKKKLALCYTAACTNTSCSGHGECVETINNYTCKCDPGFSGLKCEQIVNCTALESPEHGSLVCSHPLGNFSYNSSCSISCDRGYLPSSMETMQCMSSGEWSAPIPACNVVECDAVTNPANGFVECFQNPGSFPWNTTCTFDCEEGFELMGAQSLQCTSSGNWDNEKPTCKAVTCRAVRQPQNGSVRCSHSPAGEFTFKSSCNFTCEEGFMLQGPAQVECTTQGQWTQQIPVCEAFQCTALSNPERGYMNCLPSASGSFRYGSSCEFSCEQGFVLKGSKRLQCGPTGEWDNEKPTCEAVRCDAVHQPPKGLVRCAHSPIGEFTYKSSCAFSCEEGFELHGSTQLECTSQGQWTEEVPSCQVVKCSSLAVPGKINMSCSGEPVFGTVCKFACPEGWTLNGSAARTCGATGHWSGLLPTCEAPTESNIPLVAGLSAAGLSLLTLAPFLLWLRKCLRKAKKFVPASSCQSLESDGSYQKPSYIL

[5] = 4 h, 1×10^8 MB i.v., 5 min after injection
[6] = 15 min LAD occlusion, 4 h reflow, 2.5×10^7 MBs i.v., 3 min after injection

Molecule: MBESEL: Double-layer albumin/PDLLA microbubbles conjugated with E-selectin targeting peptide AF10166 via biotin-streptavidin bridging chemistry (DITWDQLWDLMK; also: biotinylated, site not given here, on microbubble via biotin-streptavidin)
MB adhesion to inflamed (activated) ECs [1]: 17.4±1.8 MB/EC and 17±2 MB/EC | MB adhesion to activated versus normal ECs (in words) ([1]; listed as MBE-SEL): superior binding | MB adhesion to activated versus normal ECs (in words) ([1]; listed as MBEsel): greater adhesion | MB adhesion to noninflamed (normal) ECs [1]: 5.9±3.4 MB/EC and 5±3 MB/EC | MB adhesion to inflamed microcirculation [2, 5]: 4.8±1.2 MBs/field | MB adhesion to inflamed microcirculation (Example II) ([2]; activated conditions (scrotal TNF 5μg)): 96±23 MB/field | MB adhesion to non-inflamed microcirculation (Example II) ([2]; basal conditions): 34±8 MB/field | MB adhesion to normal or inflamed microcirculation (in words) [2]: adhesion to inflamed circulation (arrows) but not to control, noninflamed circulation | MB adhesion to noninflamed microcirculation ([2]; saline intrascrotal, 4 h, 1×10^8 MB i.v., 5 min after injection): 1.7±0.4 MBs/field | Background-subtracted videointensity, nonischemic bed [3, 6]: 3.6±0.8 dB and 4±1 dB | Background-subtracted videointensity, postischemic (LAD) bed [3, 6]: 11.6±2.7 dB and 12±3 dB | Contrast enhancement of postischemic myocardium (in words) [3]: persistent contrast enhancement of the previously ischemic LAD coronary artery territory | Contrast enhancement of postischemic myocardium (in words) ([3]; listed as MBEsel): higher | Linear relationship, size of risk area vs size of region of persistent contrast enhancement (r) ([3]; y=0.98x-0.01): 0.92

B1: MBESEL: polymer/albumin double-shell microbubble bearing biotinylated peptide AF10166 (E-selectin targeting peptide) via biotin-streptavidin bridging (peptide)
peptide: DITWDQLWDLMK
modifications: also: biotinylated, site not given here, held on microbubble shell by biotin-streptavidin bridging
notes: The peptide stood in the assays as many copies on a gas-filled microbubble (outer shell crosslinked human albumin, inner layer PDLLA); streptavidin and albumin shell are not; also called E-selectin targeted microbubble; MBEsel (biotin-streptavidin linker)
binding result [4]: binds

More lines, main results first:

Background-subtracted videointensity, postischemic (LAD) bed [3, 6]: 4.0±1.0 dB and 4±1 dB | Contrast enhancement of postischemic myocardium (in words) [3]: not seen
Molecule: MBCTL: Control microbubbles linked to the 12-mer randomized AF10166 sequence (H2NWKLDTLDMIWQD-COOH) via biotin-streptavidin (also: linked to microbubbles via biotin-streptavidin, site not given here) [reference compound]
MB adhesion to inflamed (activated) ECs [1]: 4.1±0.6 MB/EC and 5±2 MB/EC | MB adhesion to activated versus normal ECs (in words) [1]: no difference | MB adhesion to activated versus normal ECs (in words) ([1]; listed as MBcontrl): minimal adhesion | MB adhesion to noninflamed (normal) ECs [1]: 4±1 MB/EC | MB adhesion to inflamed microcirculation [2, 5]: 1.5±0.3 MBs/field | MB adhesion to normal or inflamed microcirculation (in words) [2]: minimal attachment; also recorded: minimal adhesion

binding result [4]: binds
B2: MB Esel(MAL): polymer/albumin double-shell microbubble bearing the E-selectin targeting peptide with one N-terminal cysteine, joined by a thioether bond … (peptide)
peptide: C([BM(PEG)3-microbubble albumin shell])DITWDQLWDLMK
modifications: reading uncertain; also: thioether-conjugated to polymer/albumin microbubble
notes: also called microbubble Esel(MAL); E-sel target MB (Mal)
